Assay results as given in patent US10391095B2, “DNA-PK inhibitors” (Vertex Pharmaceuticals Incorporated, priority 2012, dated 2019).

Target: DNA-PK (Homo sapiens, UniProt P78527)
Assay: DNA-PK inhibition assay (radiometric, 33P-ATP)
Format: biochemical
Details: 100 μM ATP, competitive tight-binding fit
In short: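 33P transfer from 100 µM ATP to a DNA-PK peptide (0.8 mg/mL) is measured after 45 min, using about 6 nM enzyme activated by 10 µg/mL sheared dsDNA (HEPES pH 7.5, MgCl2, DTT). Filter-bound counts fitted to a competitive tight-binding inhibition model give Ki.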

Ki, < 30 nM:
CCOC(=O)C(C)(C)n1ncc2cc(-c3cc(NCC(C)c4ccc(C(=O)NC)cc4OC)ncn3)cnc21 (stereo not shown) [Compound 276]
CNC(=O)c1c(F)cnc2c([C@H](C)CNc3cc(-c4cnc(C)nc4)ncn3)ccc(F)c12 [Compound 645]
CNC(=O)c1ccc(C(C)CNc2cc(-c3ccc(N4CCN(C(C)=O)CC4)nc3)ncn2)c(OC)c1 (stereo not shown) [Compound 130]
CNC(=O)c1ccnc2c([C@H](C)CNc3cc(-c4cncc(OC)c4)ncn3)cccc12 [Compound 878]
CNC(=O)c1ccnc2c([C@H](C)CNc3cc(-c4ccc5c(c4)CCN(C(C)=O)C5)ncn3)cccc12 [Compound 803]
CNC(=O)c1ccnc2c([C@H](C)CNc3cc(-c4ccc(C5(C#N)CC5)cc4)ncn3)cccc12 [Compound 681]
CNC(=O)c1ccc([C@H](C)CNc2cc(-c3ccc(Nc4nc[nH]n4)nc3)ncn2)c(OC)c1 [Compound 354]
CNC(=O)c1ccnc2c([C@H](C)CNc3cc(-c4cc(F)c(OC(C)C)c(F)c4)ncn3)cccc12 [Compound 872]
CNC(=O)c1ccnc2c([C@H](C)CNc3cc(-c4ccc(C(=O)N5CCN(C)CC5)cc4)ncn3)cccc12 [Compound 770]
COc1ccccc1[C@H](C)CNc1cc(-c2cnc(C)nc2)ncn1 [Compound 138]
CNC(=O)c1ccc(-c2cc(NC[C@@H](C)c3cccc4c(C(=O)NC)ccnc34)ncn2)cc1 [Compound 754]
CNC(=O)c1ccnc2c([C@H](C)CNc3cc(-c4ccc(O)cc4)ncn3)cccc12 [Compound 685]
COc1ccccc1CCNc1cc(-c2cnc3c(cnn3C)c2)ncn1 [Compound 42]
CCS(=O)(=O)c1ccc(-c2cc(NC[C@@H](C)c3cccc4c(C(=O)NC)ccnc34)ncn2)cc1 [Compound 676]
CNC(=O)c1ccc([C@H](C)CNc2cc(-c3ccc(NCCN(C)C)nc3)ncn2)c(OC)c1 [Compound 369]
COc1ccccc1[C@H](C)CNc1cc(-c2cnc3c(ccn3C)c2)ncn1 [Compound 173]
CC(CNc1cc(-c2cnc3c(cnn3CCO)c2)ncn1)c1ccnc2c1OCCO2 (stereo not shown) [Compound 444]
C[C@H](CNc1cc(-c2ccc3ncccc3c2)ncn1)c1ccnc2c1OCC2 [Compound 480]
Cc1ccc(-c2cc(NC[C@@H](C)c3cccc4nccnc34)ncn2)cn1 [Compound 445]
CNC(=O)c1ccc([C@H](C)CNc2cc(-c3ccc(C)nc3)ncn2)c(OC2CCC2)c1 [Compound 478]
CNC(=O)c1ccnc2c([C@H](C)CNc3cc(-c4cnc(C)c(C)c4)ncn3)cccc12 [Compound 870]
CCNC(=O)Cn1ncc2cc(-c3cc(NC[C@@H](C)c4ccccc4OC)ncn3)cnc21 [Compound 147]
CNC(=O)c1ccc(C(C)CNc2cc(-c3cn(C4COC4)c4ncc(F)cc34)ncn2)c(OC)c1 (stereo not shown) [Compound 449]
CNC(=O)c1ccnc2c([C@H](C)CNc3cc(-c4ccc(C)s4)ncn3)cccc12 [Compound 839]
CNC(=O)c1ccc(C(C)CNc2cc(-c3ccc4c(cnn4CCO)c3C)ncn2)c(OC)c1 (stereo not shown) [Compound 277]
CNC(=O)c1ccnc2c([C@H](C)CNc3cc(-c4ccc(NCc5nc6ccccc6[nH]5)nc4)ncn3)cccc12 [Compound 710]
CNC(=O)c1c(F)cnc2c([C@H](C)CNc3cc(-c4ccc(OC)nc4)ncn3)cccc12 [Compound 900]
Cc1ccc(-c2cc(NCC(C)c3cccc4c3OC(C)(C)C4)ncn2)cn1 (stereo not shown) [Compound 85]
CNC(=O)c1c(F)cnc2c([C@H](C)CNc3cc(-c4ccc(C(C)(C)O)nc4)ncn3)cccc12 [Compound 866]
Cc1ccc(-c2cc(NC[C@@H](C)c3ccnc4cccnc34)ncn2)cn1 [Compound 495]
CNC(=O)c1ccc(C(C)CNc2cc(-c3ccc(C4(CO)CC4)cc3)ncn2)c(OC)c1 (stereo not shown) [Compound 338]
CNC(=O)c1ccnc2c([C@H](C)CNc3cc(-c4ccc(S(C)(=O)=O)nc4)ncn3)cccc12 [Compound 587]
COc1ncc(-c2cc(NC[C@@H](C)c3ccnc4c3OCCO4)ncn2)cc1N [Compound 519]
CCOc1ccc(-c2cc(NC[C@@H](C)c3ccc(F)c4c(C(=O)NC)ccnc34)ncn2)cn1 [Compound 934]
CNC(=O)c1ccnc2c([C@H](C)CNc3cc(-c4ccc(C5CC5)nc4)ncn3)ccc(F)c12 [Compound 852]
CCOc1cc(-c2cc(NC[C@@H](C)c3cccc4c(C(=O)NC)ccnc34)ncn2)ccn1 [Compound 962]
CNC(=O)c1c(F)cnc2c([C@H](C)CNc3cc(-c4ccc(C(O)C(C)C)nc4)ncn3)cccc12 (stereo partly shown) [Compound 927]
CC(=O)c1ccc(-c2cc(NC[C@@H](C)c3ccnc4c3OCC4)ncn2)cc1 [Compound 596]
CNC(=O)c1ccnc2c([C@H](C)CNc3cc(-c4ccc5c(c4)OCCN5C)ncn3)cccc12 [Compound 843]
CCOc1cc(-c2cc(NC[C@@H](C)c3cccc4c(C(=O)NC)ccnc34)ncn2)cnc1C [Compound 875]
CNC(=O)c1ccc([C@H](C)CNc2cc(-c3ccc(N(C)C)nc3)ncn2)c(OC)c1 [Compound 359]
COc1cc(C(=O)NOCc2ccccc2)ccc1C(C)CNc1cc(-c2ccc(C)nc2)ncn1 (stereo not shown) [Compound 222]
COc1cscc1C(C)CNc1cc(-c2ccc(C)nc2)ncn1 (stereo not shown) [Compound 144]
CNC(=O)c1ccc(C(C)CNc2cc(-c3cnc4c(cnn4C(C)(C)C(=O)O)c3)ncn2)c(OC)c1 (stereo not shown) [Compound 284]
Cc1ccc(-c2cc(NCC(C)c3ccc(F)c4cccnc34)ncn2)cn1 (stereo not shown) [Compound 303]
CCCNc1ccc(-c2cc(NC[C@@H](C)c3ccc(C(=O)NC)cc3OC)ncn2)cn1 [Compound 361]
CNC(=O)c1ccnc2c([C@H](C)CNc3cc(-c4cnc(C(C)C)nc4)ncn3)cccc12 [Compound 849]
Cc1ccc(-c2cc(NCC(C)c3cccc4cccnc34)ncn2)cn1 (stereo not shown) [Compound 235]
CNC(=O)c1ccnc2c([C@H](C)CNc3cc(-c4cnc(C#N)c(OC)c4)ncn3)ccc(F)c12 [Compound 923]
Cc1ccc(-c2cc(NCC(C)c3ccnc4cccnc34)ncn2)cn1 (stereo not shown) [Compound 331]
CNC(=O)c1ccnc2c([C@H](C)CNc3cc(-c4cnc5c(c4)OCCO5)ncn3)cccc12 [Compound 935]
CNC(=O)c1ccnc2c([C@H](C)CNc3cc(-c4ccc(NCCCO)nc4)ncn3)cccc12 [Compound 715]
CNC(=O)c1ccc(C(C)CNc2cc(-c3ccc(OC4COC4)nc3)ncn2)c(OC)c1 (stereo not shown) [Compound 307]
COc1cscc1C(C)CNc1cc(-c2cnc3c(cnn3C3CCN(C)CC3)c2)ncn1 (stereo not shown) [Compound 228]
CNC(=O)c1ccc(C(C)CNc2cc(-c3ccc(OCCS(C)(=O)=O)nc3)ncn2)c(OC)c1 (stereo not shown) [Compound 325]
CNC(=O)c1ccnc2c([C@H](C)CNc3cc(-c4ccnc(CO)c4)ncn3)cccc12 [Compound 890]
Cc1ccc(-c2cc(NCC(C)c3cccc4nc(C)c(C)nc34)ncn2)cn1 (stereo not shown) [Compound 434]
CNC(=O)c1ccnc2c([C@H](C)CNc3cc(-c4cnc(N)c(C)c4)ncn3)cccc12 [Compound 948]
CNC(=O)c1ccnc2c([C@H](C)CNc3cc(-c4ccc(C(C)(C)O)nc4)ncn3)ccc(F)c12 [Compound 865]
CNC(=O)c1ccnc2c([C@H](C)CNc3cc(-c4ccc(N(C)CCC(C)(C)O)nc4)ncn3)cccc12 [Compound 717]
CC(CNc1cc(-c2ccc(N3CCN(C)CC3)nc2)ncn1)c1cccc2cccnc12 (stereo not shown) [Compound 236]
CNC(=O)c1ccnc2c([C@H](C)CNc3cc(-c4ccc(C#N)nc4)ncn3)cccc12 [Compound 613]
CNC(=O)c1ccnc2c([C@H](C)CNc3cc(-c4cnc(SC)nc4)ncn3)cccc12 [Compound 800]
CNC(=O)c1ccnc2c([C@H](C)CNc3cc(-c4ccc(NCC(F)F)nc4)ncn3)cccc12 [Compound 975]
CNC(=O)c1ccc(C(C)CNc2cc(-c3cnc4c(cnn4CC#N)c3)ncn2)c(OC)c1 (stereo not shown) [Compound 441]
COc1ccccc1CCNc1cc(-c2cnc3c(ccn3C)c2)ncn1 [Compound 34]
CNC(=O)c1ccnc2c([C@H](C)CNc3cc(-c4ccc(NC(=O)OC)cc4)ncn3)cccc12 [Compound 750]
CNC(=O)c1ccnc2c([C@H](C)CNc3cc(-c4cncc(C)c4)ncn3)ccc(F)c12 [Compound 651]
CNC(=O)c1ccnc2c([C@H](C)CNc3cc(-c4ccc(F)nc4)ncn3)ccc(F)c12 [Compound 907]
CNC(=O)c1ccnc2c([C@H](C)CNc3cc(-c4ccc(NC5CC5)nc4)ncn3)cccc12 [Compound 628]
CNC(=O)c1ccnc2c([C@H](C)CNc3cc(-c4ccc(N)nc4)ncn3)cccc12 [Compound 586]
Cc1ccc(-c2cc(NC[C@@H](C)c3ccnc4c3OCC4(C)C)ncn2)cn1 [Compound 583]
Cc1ccc(-c2cc(NCC(C)c3cccc4cc(F)cnc34)ncn2)cn1 (stereo not shown) [Compound 346]
CCOc1ncc(-c2cc(NC[C@@H](C)c3ccccc3OC)ncn2)cn1 [Compound 125]
CC(=O)N1CCOc2c([C@H](C)CNc3cc(-c4cnc(C)nc4)ncn3)cccc21 [Compound 627]
CNC(=O)c1c(F)cnc2c([C@H](C)CNc3cc(-c4cnn(C)c4)ncn3)cccc12 [Compound 783]
